According to US5840684A, “Glycopeptide antibiotic derivatives” (Eli Lilly and Company, priority 1995, dated 1998):
Converted amounts (≈) assume the structure as drawn.

How the values were obtained:
[1] = system: Staphylococcus aureus 446; experiment: broth micro-dilution MIC; format: cell-based
Protocol: (§1) The MIC's were determined using a standard broth micro-dilution assay.

[2] = system: Streptococcus pyogenes C203; experiment: broth micro-dilution MIC; format: cell-based
Protocol: as §1

[3] = system: Staphylococcus aureus SA1199A; experiment: broth micro-dilution MIC; format: cell-based
Protocol: as §1

[4] = system: Staphylococcus aureus 447; experiment: broth micro-dilution MIC; format: cell-based
Protocol: as §1

[5] = system: Staphylococcus aureus 491; experiment: broth micro-dilution MIC; format: cell-based
Protocol: as §1

[6] = system: Entercoccus faecium 276; experiment: broth micro-dilution MIC; format: cell-based
Protocol: as §1

[7] = system: Staphylococcus aureus 489; experiment: broth micro-dilution MIC; format: cell-based
Protocol: as §1

[8] = system: Staphylococcus aureus X400; experiment: broth micro-dilution MIC; format: cell-based
Protocol: as §1

[9] = system: Staphylococcus aureus X778; experiment: broth micro-dilution MIC; format: cell-based
Protocol: as §1

[10] = system: Entercoccus faecium 180-1; experiment: broth micro-dilution MIC; format: cell-based
Protocol: as §1

[11] = system: Staphylococcus aureus SA1199; experiment: broth micro-dilution MIC; format: cell-based
Protocol: as §1

[12] = system: Enterococcus gallinarum 245; experiment: broth micro-dilution MIC; format: cell-based; settings: Enterococcus gallinarum 245
Protocol: (§2) The formula I compounds have in vitro and in vivo activity against Gram-positive pathogenic bacteria. The MIC's were determined using a standard broth micro-dilution assay.

[13] = system: Staphylococcus haemolyticus 105; experiment: broth micro-dilution MIC; format: cell-based
Protocol: as §2

[14] = system: Entercoccus faecium 180; experiment: broth micro-dilution MIC; format: cell-based; settings: Entercoccus faecium 180
Protocol: as §2

[15] = system: Staphylococcus epidermidis 270; experiment: broth micro-dilution MIC; format: cell-based
Protocol: as §2

[16] = system: Streptococcus pneumoniae P1; experiment: broth micro-dilution MIC; format: cell-based
Protocol: as §2

[17] = system: Escherichia coli EC14; experiment: broth micro-dilution MIC; format: cell-based
Protocol: as §2

[18] = system: Entercoccus faecium 2041; experiment: broth micro-dilution MIC; format: cell-based; settings: Entercoccus faecium 2041
Protocol: as §2

[19] = system: Haemophilus influenzae RD; experiment: broth micro-dilution MIC; format: cell-based; settings: Haemophilus influenzae RD
Protocol: as §2

[20] = system: Staphylococcus haemolyticus 415; experiment: broth micro-dilution MIC; format: cell-based
Protocol: as §2

[21] = system: Staphylococcus aureus SA1199B; format: cell-based
Protocol: as §1

[22] = system: Staphylococcus aureus S13E; format: cell-based
Protocol: as §1

[23] = system: vancomycin-susceptible enterococci; experiment: broth micro-dilution, mean geometric MIC; format: cell-based, Enterococcus faecium and Enterococcus faecalis; settings: enterococci, 24-hour incubation
[24] = system: vancomycin-resistant enterococci; experiment: broth micro-dilution, mean geometric MIC; format: cell-based, Enterococcus faecium and Enterococcus faecalis; settings: enterococci, 24-hour incubation

Structure (SMILES)	MIC [1] [µg/mL]	MIC [2] [µg/mL]	MIC [3] [µg/mL]	MIC [4] [µg/mL]	MIC [5] [µg/mL]	MIC [6] [µg/mL]	MIC [7] [µg/mL]	MIC [8] [µg/mL]	MIC [9] [µg/mL]	MIC [10] [µg/mL]	MIC [11] [µg/mL]	MIC [12] [µg/mL]	MIC [13] [µg/mL]	MIC [14] [µg/mL]	MIC [15] [µg/mL]	MIC [16] [µg/mL]	MIC [17] [µg/mL]	MIC [18] [µg/mL]	MIC [19] [µg/mL]	MIC [20] [µg/mL]	also measured
CC(C)CC(C(=O)NC1C(=O)NC(CC(N)=O)C(=O)NC2C(=O)NC3C(=O)NC(C(=O)NC(C(=O)O)c4cc(O)cc(O)c4-c4cc3ccc4O)C(OC3CC(C)(N)C(O)C(C)O3)c3ccc(c(Cl)c3)Oc3cc2cc(c3OC2OC(CO)C(O)C(O)C2OC2CC(C)(NCc3ccc(-c4ccc(Cl)cc4)cc3)C(O)C(C)O2)Oc2ccc(cc2Cl)C1O)N(C)Cc1ccc(-c2ccc(Cl)cc2)cc1.O=C(O)C(F)(F)F (stereo not drawn) [Compound 253]	64	0.25	1	16	2	16	16	32	16	0.5	32	16	16	0.5	8	0.125	> 64	4	> 64	16	MIC [21]: 32 µg/mL; MIC [22]: 32 µg/mL; mean geometric MIC, Vancomycin Sensitive Strains [23]: 3 µg/mL; mean geometric MIC, Vancomycin Resistant Strains [24]: 4.8 µg/mL
CNC(CC(C)C)C(=O)NC1C(=O)NC(CC(N)=O)C(=O)NC2C(=O)NC3C(=O)NC(C(=O)NC(C(=O)O)c4cc(O)cc(O)c4-c4cc3ccc4O)C(OC3CC(C)(NCc4ccc(-c5ccc(Cl)cc5)cc4)C(O)C(C)O3)c3ccc(c(Cl)c3)Oc3cc2cc(c3OC2OC(CO)C(O)C(O)C2OC2CC(C)(NCc3ccc(-c4ccc(Cl)cc4)cc3)C(O)C(C)O2)Oc2ccc(cc2Cl)C1O.O=C(O)C(F)(F)F (stereo not drawn) [Compound 254]	32	0.5	0.5	16	1	8	16	8	4	0.25	8	16	16	0.25	8	≤ 0.06	> 64	4	> 64	16	MIC [21]: 16 µg/mL; MIC [22]: 32 µg/mL; mean geometric MIC, Vancomycin Sensitive Strains [23]: 0.5 µg/mL; mean geometric MIC, Vancomycin Resistant Strains [24]: 2 µg/mL
CC(C)CC(C(=O)NC1C(=O)NC(CC(N)=O)C(=O)NC2C(=O)NC3C(=O)NC(C(=O)NC(C(=O)O)c4cc(O)cc(O)c4-c4cc3ccc4O)C(OC3CC(C)(NCc4ccc(-c5ccc(Cl)cc5)cc4)C(O)C(C)O3)c3ccc(c(Cl)c3)Oc3cc2cc(c3OC2OC(CO)C(O)C(O)C2OC2CC(C)(NCc3ccc(-c4ccc(Cl)cc4)cc3)C(O)C(C)O2)Oc2ccc(cc2Cl)C1O)N(C)Cc1ccc(-c2ccc(Cl)cc2)cc1.O=C(O)C(F)(F)F (stereo not drawn) [Compound 255]	64	16	16	> 64	> 64	> 64	> 64	> 64	> 64	16	> 64	> 64	> 64	> 64	> 64	1	> 64	16	> 64	> 64	MIC [21]: > 64 µg/mL; MIC [22]: > 64 µg/mL; mean geometric MIC, Vancomycin Sensitive Strains [23]: 32 µg/mL; mean geometric MIC, Vancomycin Resistant Strains [24]: 64 µg/mL
CC(C)CC(C(=O)NC1C(=O)NC(CC(N)=O)C(=O)NC2C(=O)NC3C(=O)NC(C(=O)NC(C(=O)O)c4cc(O)cc(O)c4-c4cc3ccc4O)C(OC3CC(C)(N)C(O)C(C)O3)c3ccc(c(Cl)c3)Oc3cc2cc(c3OC2OC(CO)C(O)C(O)C2OC2CC(C)(N)C(O)C(C)O2)Oc2ccc(cc2Cl)C1O)N(C)Cc1ccc(O)cc1 (stereo not drawn) [Compound 257]	≤ 0.06	≤ 0.06	≤ 0.06	0.25 (≈ 0.147 µM)	≤ 0.06	≤ 0.06	≤ 0.06	≤ 0.06	≤ 0.06	≤ 0.06	≤ 0.06	≤ 0.06	2 (≈ 1.18 µM)	4 (≈ 2.35 µM)	0.25 (≈ 0.147 µM)	≤ 0.06	> 64	≤ 0.06	> 64	8 (≈ 4.71 µM)	MIC [21]: ≤ 0.06 µg/mL; MIC [22]: ≤ 0.06 µg/mL; mean geometric MIC, Vancomycin Sensitive Strains [23]: 1 µg/mL; mean geometric MIC, Vancomycin Resistant Strains [24]: 64 µg/mL
CC(C)CC(C(=O)NC1C(=O)NC(CC(N)=O)C(=O)NC2C(=O)NC3C(=O)NC(C(=O)NC(C(=O)O)c4cc(O)cc(O)c4-c4cc3ccc4O)C(OC3CC(C)(N)C(O)C(C)O3)c3ccc(c(Cl)c3)Oc3cc2cc(c3OC2OC(CO)C(O)C(O)C2OC2CC(C)(NCc3ccc4c(c3)CCCC4)C(O)C(C)O2)Oc2ccc(cc2Cl)C1O)N(C)Cc1ccc2c(c1)CCCC2 (stereo not drawn) [Compound 258]	1 (≈ 0.532 µM)	≤ 0.06	2 (≈ 1.06 µM)	1 (≈ 0.532 µM)	1 (≈ 0.532 µM)	1 (≈ 0.532 µM)	1 (≈ 0.532 µM)	2 (≈ 1.06 µM)	1 (≈ 0.532 µM)	4 (≈ 2.13 µM)	2 (≈ 1.06 µM)	1 (≈ 0.532 µM)	1 (≈ 0.532 µM)	1 (≈ 0.532 µM)	2 (≈ 1.06 µM)	≤ 0.06	> 64	0.5 (≈ 0.266 µM)	> 64	2 (≈ 1.06 µM)	MIC [21]: 0.25 µg/mL (≈ 0.133 µM); MIC [22]: 2 µg/mL (≈ 1.06 µM); mean geometric MIC, Vancomycin Sensitive Strains [23]: 1 µg/mL; mean geometric MIC, Vancomycin Resistant Strains [24]: 8 µg/mL
CC(C)CC(C(=O)NC1C(=O)NC(CC(N)=O)C(=O)NC2C(=O)NC3C(=O)NC(C(=O)NC(C(=O)O)c4cc(O)cc(O)c4-c4cc3ccc4O)C(OC3CC(C)(N)C(O)C(C)O3)c3ccc(c(Cl)c3)Oc3cc2cc(c3OC2OC(CO)C(O)C(O)C2OC2CC(C)(NCc3ccc(N(C)c4ccccc4)cc3)C(O)C(C)O2)Oc2ccc(cc2Cl)C1O)N(C)Cc1ccc(N(C)c2ccccc2)cc1 (stereo not drawn) [Compound 260]	2 (≈ 1.01 µM)	≤ 0.06	0.5 (≈ 0.252 µM)	4 (≈ 2.02 µM)	1 (≈ 0.504 µM)	2 (≈ 1.01 µM)	2 (≈ 1.01 µM)	4 (≈ 2.02 µM)	1 (≈ 0.504 µM)	0.25 (≈ 0.126 µM)	2 (≈ 1.01 µM)	0.25 (≈ 0.126 µM)	1 (≈ 0.504 µM)	0.5 (≈ 0.252 µM)	1 (≈ 0.504 µM)	≤ 0.06	> 64	1 (≈ 0.504 µM)	> 64	2 (≈ 1.01 µM)	MIC [21]: 2 µg/mL (≈ 1.01 µM); MIC [22]: 4 µg/mL (≈ 2.02 µM); mean geometric MIC, Vancomycin Sensitive Strains [23]: 1.1 µg/mL; mean geometric MIC, Vancomycin Resistant Strains [24]: 4.8 µg/mL
CC(C)CC(C(=O)NC1C(=O)NC(CC(N)=O)C(=O)NC2C(=O)NC3C(=O)NC(C(=O)NC(C(=O)O)c4cc(O)cc(O)c4-c4cc3ccc4O)C(OC3CC(C)(N)C(O)C(C)O3)c3ccc(c(Cl)c3)Oc3cc2cc(c3OC2OC(CO)C(O)C(O)C2OC2CC(C)(NCc3c4c(cc5ccccc35)CCCC4)C(O)C(C)O2)Oc2ccc(cc2Cl)C1O)N(C)Cc1c2c(cc3ccccc13)CCCC2 (stereo not drawn) [Compound 262]	2 (≈ 1.01 µM)	≤ 0.06	≤ 0.06	1 (≈ 0.505 µM)	1 (≈ 0.505 µM)	2 (≈ 1.01 µM)	1 (≈ 0.505 µM)	2 (≈ 1.01 µM)	1 (≈ 0.505 µM)	≤ 0.06	0.5 (≈ 0.252 µM)	2 (≈ 1.01 µM)	4 (≈ 2.02 µM)	1 (≈ 0.505 µM)	1 (≈ 0.505 µM)	≤ 0.06	> 64	0.5 (≈ 0.252 µM)	> 64	2 (≈ 1.01 µM)	MIC [21]: 0.5 µg/mL (≈ 0.252 µM); MIC [22]: 1 µg/mL (≈ 0.505 µM); mean geometric MIC, Vancomycin Sensitive Strains [23]: 0.17 µg/mL; mean geometric MIC, Vancomycin Resistant Strains [24]: 5.7 µg/mL
